# Data from patent publication US8883763B2 (Universite Joseph Fourier, priority 2010, dated 2014).
# pIC50: −log10 of the molar value.
# Tested on: HeLa cells
# Assay: Indirect immunofluorescence: effect on HeLa cells (mitotic arrest, microtubule depolymerization)
# Assay type: cell-based, human
# Parameters: key to Effect on Hela at 25 μM / Effect on Hela at 100 μM / Effect on Hela at 50 and 100 μM / Effect on Hela at 50 μM: —: −: no activity on the cells at 25 μM (if there is an effect at high concentrations, this is specified in the table).; *: weak activity (MA and/or slight depolymerization of the MTs and/or slight inhibition of proliferation),; **: average activity (MA and/or moderate depolymerization of the MTs and/or moderate inhibition of proliferation),; ***: strong activity (MA and/or pronounced depolymerization of the MTs and/or pronounced inhibition of proliferation),; ****: very strong activity (MA and/or very pronounced depolymerization of the MTs and/or strong inhibition of proliferation)
# Details: 25 μM, 24 hours; mitotic index and/or depolymerization of the MTs
# Method in brief: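 HeLa cells exposed 24 h to compound (100 μM to 50 nM; primary series 1–10 μM), DMSO controls. PFA/glutaraldehyde-fixed cells immunostained for α-tubulin, actin (phalloidin) and DNA (Hoechst); fluorescence microscopy scored phenotypes and mitotic index, with mitotic index and/or MT depolymerization evaluated at 25 μM.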
row,Compound,Effect on Hela at 25 μM
1,"COc1ccc(-c2[nH]c(=O)c3cc(OC)ccc3c2N(C)C)cc1 [Compound 23, 4-(Dimethylamino)-7-methoxy-3-(4-methoxyphenyl)isoquinoline-1(2H)-one]",***
2,"COc1ccc(-c2nc(Cl)c3cc(OC)ccc3c2Br)cc1 [Compound 26, 4-Bromo-1-chloro-7-methoxy-3-(4-methoxyphenyl)isoquinoline]",—
3,"COc1ccc(-c2[nH]c(=O)c3cc(OC)ccc3c2N2CCCCC2)cc1 [Compound 40, 4-(Piperidin-1-yl)-7-methoxy-3-(4-methoxyphenyl)isoquinoline-1(2H)-one]",—
4,"COc1ccc(-c2nc(Sc3ccccc3)c3cc(OC)ccc3c2[N+](=O)[O-])cc1 [Compound 20, 7-Methoxy-3-(4-methoxyphenyl)-4-nitro-1-(phenylethio)isoquinoline]",—
5,"COc1ccc(-c2[nH]c(=O)c3cc(OC)ccc3c2N2CCOCC2)cc1 [Compound 49, 7-Methoxy-3-(4-methoxyphenyl)-4-morpholinoisoquinolin-1(2H)-one]",**
6,"COc1ccc(-c2nc(SCc3ccccc3)c3cc(OC)ccc3c2[N+](=O)[O-])cc1 [Compound 21, 1-(Benzylthio)-7-methoxy-3-(4-methoxyphenyl)-4-nitroisoquinoline]",—
7,"COc1ccc(-c2nc(OC)c3cc(OC)ccc3c2[N+](=O)[O-])cc1 [Compound 19, 1,7-Dimethoxy-3-(4-methoxyphenyl)-4-nitroisoquinoline]",—
8,"C#CCn1c(-c2ccc(OC)cc2)c([N+](=O)[O-])c2ccc(OC)cc2c1=O [Compound 28, 7-Methoxy-3-(4-methoxyphenyl)-4-nitro-2-(propargyl)isoquinolin-1(2H)-one]",—
9,"COc1ccc2cc(-c3ccc(Br)cc3)[nH]c(=O)c2c1 [Compound 32, 3-(4-Bromophenyl)-7-methoxyisoquinolin-1(2H)-one]",****

# Same assay, conditions: 100 μM, 24 hours
row,Compound,Effect on Hela at 100 μM
1,"COc1ccc(-c2nc(OC)c3cc(OC)ccc3c2[N+](=O)[O-])cc1 [Compound 19, 1,7-Dimethoxy-3-(4-methoxyphenyl)-4-nitroisoquinoline]",**

# Same assay, conditions: 50 and 100 μM, 24 hours
row,Compound,Effect on Hela at 50 and 100 μM
1,"COc1ccc(-c2nc(Sc3ccccc3)c3cc(OC)ccc3c2[N+](=O)[O-])cc1 [Compound 20, 7-Methoxy-3-(4-methoxyphenyl)-4-nitro-1-(phenylethio)isoquinoline]",*
2,"C#CCn1c(-c2ccc(OC)cc2)c([N+](=O)[O-])c2ccc(OC)cc2c1=O [Compound 28, 7-Methoxy-3-(4-methoxyphenyl)-4-nitro-2-(propargyl)isoquinolin-1(2H)-one]",**

# Tested on: HMEC cells
# Assay: Proliferation of HMEC cells (GI50)
# Assay type: cell-based
# Details: Homo sapiens, 120 h, 50 μM to 1 nM for 5 days
# Method in brief: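 Cells seeded at 1,000/well (10% confluence) and exposed 5 days (120 h) to compound from 1 nM up to 50–100 μM. Live cells counted by Hoechst 33342 staining under fluorescence microscopy; GI50 is concentration halving proliferation versus control, mean of two triplicate experiments.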
row,Compound,GI50 [µM]
1,"COc1ccc(-c2[nH]c(=O)c3cc(OC)ccc3c2N(C)C)cc1 [Compound 23, 4-(Dimethylamino)-7-methoxy-3-(4-methoxyphenyl)isoquinoline-1(2H)-one]",1 to 25
2,"COc1ccc(-c2nc(Cl)c3cc(OC)ccc3c2Br)cc1 [Compound 26, 4-Bromo-1-chloro-7-methoxy-3-(4-methoxyphenyl)isoquinoline]",> 50
3,"COc1ccc(-c2[nH]c(=O)c3cc(OC)ccc3c2N2CCCCC2)cc1 [Compound 40, 4-(Piperidin-1-yl)-7-methoxy-3-(4-methoxyphenyl)isoquinoline-1(2H)-one]",0.1 to 1
4,"COc1ccc(-c2nc(Sc3ccccc3)c3cc(OC)ccc3c2[N+](=O)[O-])cc1 [Compound 20, 7-Methoxy-3-(4-methoxyphenyl)-4-nitro-1-(phenylethio)isoquinoline]",> 50
5,"COc1ccc(-c2[nH]c(=O)c3cc(OC)ccc3c2N2CCOCC2)cc1 [Compound 49, 7-Methoxy-3-(4-methoxyphenyl)-4-morpholinoisoquinolin-1(2H)-one]",0.1 to 1
6,"COc1ccc(-c2nc(SCc3ccccc3)c3cc(OC)ccc3c2[N+](=O)[O-])cc1 [Compound 21, 1-(Benzylthio)-7-methoxy-3-(4-methoxyphenyl)-4-nitroisoquinoline]",> 50
7,"COc1ccc(-c2nc(OC)c3cc(OC)ccc3c2[N+](=O)[O-])cc1 [Compound 19, 1,7-Dimethoxy-3-(4-methoxyphenyl)-4-nitroisoquinoline]",> 50
8,"C#CCn1c(-c2ccc(OC)cc2)c([N+](=O)[O-])c2ccc(OC)cc2c1=O [Compound 28, 7-Methoxy-3-(4-methoxyphenyl)-4-nitro-2-(propargyl)isoquinolin-1(2H)-one]",> 50
9,"COc1ccc2cc(-c3ccc(Br)cc3)[nH]c(=O)c2c1 [Compound 32, 3-(4-Bromophenyl)-7-methoxyisoquinolin-1(2H)-one]",0.1 to 1

# Tested on: bovine brain tubulin
# Assay: In vitro tubulin polymerization test (turbidimetry at 350 nm)
# Assay type: biochemical
# Details: molecules at 50 μM, calculated at t=3000 s, DMSO control = 100%
# Method in brief: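 Bovine brain tubulin was assembled at 37 °C in BRB80 (80 mM K-PIPES pH 6.8, 1 mM MgCl2, 1 mM EGTA) with 1 mM GTP. The 50 μM tests used compounds at 50 μM, run in triplicate. Turbidity at 350 nm was read at t=3000 s and expressed relative to control taken as 100%.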
row,Compound,Tubulin polymerization inhibition
1,"COc1ccc(-c2[nH]c(=O)c3cc(OC)ccc3c2N(C)C)cc1 [Compound 23, 4-(Dimethylamino)-7-methoxy-3-(4-methoxyphenyl)isoquinoline-1(2H)-one]",+ ((+) signifies that the molecule induces tubulin assembly inhibition in vitro comprised between 6 and 25% of the DMSO control.)
2,"COc1ccc(-c2nc(Cl)c3cc(OC)ccc3c2Br)cc1 [Compound 26, 4-Bromo-1-chloro-7-methoxy-3-(4-methoxyphenyl)isoquinoline]",— ((−) signifies that the molecule induces little or no tubulin assembly inhibition in vitro: 0+ or − −5% of the DMSO control.)
3,"COc1ccc(-c2[nH]c(=O)c3cc(OC)ccc3c2N2CCCCC2)cc1 [Compound 40, 4-(Piperidin-1-yl)-7-methoxy-3-(4-methoxyphenyl)isoquinoline-1(2H)-one]",+++ ((+++) signifies that the molecule induces tubulin assembly inhibition in vitro of more than 50% with respect to the DMSO control.)
4,"COc1ccc(-c2nc(Sc3ccccc3)c3cc(OC)ccc3c2[N+](=O)[O-])cc1 [Compound 20, 7-Methoxy-3-(4-methoxyphenyl)-4-nitro-1-(phenylethio)isoquinoline]",++ ((++) signifies that the molecule induces tubulin assembly inhibition in vitro comprised between 26 and 50% of the DMSO control.)
5,"COc1ccc(-c2[nH]c(=O)c3cc(OC)ccc3c2N2CCOCC2)cc1 [Compound 49, 7-Methoxy-3-(4-methoxyphenyl)-4-morpholinoisoquinolin-1(2H)-one]",+ ((+) signifies that the molecule induces tubulin assembly inhibition in vitro comprised between 6 and 25% of the DMSO control.)
6,"COc1ccc(-c2nc(SCc3ccccc3)c3cc(OC)ccc3c2[N+](=O)[O-])cc1 [Compound 21, 1-(Benzylthio)-7-methoxy-3-(4-methoxyphenyl)-4-nitroisoquinoline]",+++ ((+++) signifies that the molecule induces tubulin assembly inhibition in vitro of more than 50% with respect to the DMSO control.)
7,"COc1ccc(-c2nc(OC)c3cc(OC)ccc3c2[N+](=O)[O-])cc1 [Compound 19, 1,7-Dimethoxy-3-(4-methoxyphenyl)-4-nitroisoquinoline]",+ ((+) signifies that the molecule induces tubulin assembly inhibition in vitro comprised between 6 and 25% of the DMSO control.)
8,"C#CCn1c(-c2ccc(OC)cc2)c([N+](=O)[O-])c2ccc(OC)cc2c1=O [Compound 28, 7-Methoxy-3-(4-methoxyphenyl)-4-nitro-2-(propargyl)isoquinolin-1(2H)-one]",— ((−) signifies that the molecule induces little or no tubulin assembly inhibition in vitro: 0+ or − −5% of the DMSO control.)
9,"COc1ccc2cc(-c3ccc(Br)cc3)[nH]c(=O)c2c1 [Compound 32, 3-(4-Bromophenyl)-7-methoxyisoquinolin-1(2H)-one]",— ((−) signifies that the molecule induces little or no tubulin assembly inhibition in vitro: 0+ or − −5% of the DMSO control.)

# Tested on: not given
# Assay: not given
# Details: not given
row,Compound,melting point [°C]
1,"COc1ccc(-c2[nH]c(=O)c3cc(OC)ccc3c2N(C)C)cc1 [Compound 23, 4-(Dimethylamino)-7-methoxy-3-(4-methoxyphenyl)isoquinoline-1(2H)-one]",183 to 185
2,"COc1ccc(-c2nc(Cl)c3cc(OC)ccc3c2Br)cc1 [Compound 26, 4-Bromo-1-chloro-7-methoxy-3-(4-methoxyphenyl)isoquinoline]",164 to 166
3,"COc1ccc(-c2[nH]c(=O)c3cc(OC)ccc3c2N2CCCCC2)cc1 [Compound 40, 4-(Piperidin-1-yl)-7-methoxy-3-(4-methoxyphenyl)isoquinoline-1(2H)-one]",206
4,"COc1ccc(-c2nc(Sc3ccccc3)c3cc(OC)ccc3c2[N+](=O)[O-])cc1 [Compound 20, 7-Methoxy-3-(4-methoxyphenyl)-4-nitro-1-(phenylethio)isoquinoline]",169 to 171
5,"COc1ccc(-c2[nH]c(=O)c3cc(OC)ccc3c2N2CCOCC2)cc1 [Compound 49, 7-Methoxy-3-(4-methoxyphenyl)-4-morpholinoisoquinolin-1(2H)-one]",139
6,"COc1ccc(-c2nc(SCc3ccccc3)c3cc(OC)ccc3c2[N+](=O)[O-])cc1 [Compound 21, 1-(Benzylthio)-7-methoxy-3-(4-methoxyphenyl)-4-nitroisoquinoline]",148 to 150
7,"COc1ccc(-c2nc(OC)c3cc(OC)ccc3c2[N+](=O)[O-])cc1 [Compound 19, 1,7-Dimethoxy-3-(4-methoxyphenyl)-4-nitroisoquinoline]",176 to 178
8,"C#CCn1c(-c2ccc(OC)cc2)c([N+](=O)[O-])c2ccc(OC)cc2c1=O [Compound 28, 7-Methoxy-3-(4-methoxyphenyl)-4-nitro-2-(propargyl)isoquinolin-1(2H)-one]",162 to 164
9,"COc1ccc2cc(-c3ccc(Br)cc3)[nH]c(=O)c2c1 [Compound 32, 3-(4-Bromophenyl)-7-methoxyisoquinolin-1(2H)-one]",> 250

# Target: T1, PP1α (PP1CA) (Oryctolagus cuniculus, UniProt P62139)
# T1 construct: purchased New England Biolabs P0754
# Assay: Protein phosphatase test (PP1 activity, DiFMUP fluorescent substrate)
# Assay type: biochemical
# Details: PP1CA at 80 mU, fluorescent substrate (50 μM), molecules from 50 μM to 50 nM; read-out: PP1 Inhibition IC50
# Method in brief: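 PP1α (30 or 80 mU) in 100 mM Tris-HCl pH 7.5, 4 mM DTT, 0.2 mM EDTA, 0.5 mM MnCl2 was preincubated 15 min with compound (50 μM to 50 nM), then given 60 μM DiFMUP for 20 min at 37 °C. Phosphatase activity was read as fluorescence at 355-460 nm, three times in duplicate.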
# T1 sequence (P62139 whole entry): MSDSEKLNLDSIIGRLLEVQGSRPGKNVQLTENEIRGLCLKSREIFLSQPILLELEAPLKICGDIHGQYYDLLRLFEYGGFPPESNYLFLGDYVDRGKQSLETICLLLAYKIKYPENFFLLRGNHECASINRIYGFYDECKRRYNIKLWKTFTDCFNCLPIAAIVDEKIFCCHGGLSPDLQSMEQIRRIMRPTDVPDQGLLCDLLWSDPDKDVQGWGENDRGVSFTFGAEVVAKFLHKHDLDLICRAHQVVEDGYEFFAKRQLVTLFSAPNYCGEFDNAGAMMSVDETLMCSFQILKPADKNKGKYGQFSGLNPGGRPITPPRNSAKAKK
row,Compound,pIC50
1,"COc1ccc(-c2[nH]c(=O)c3cc(OC)ccc3c2N(C)C)cc1 [Compound 23, 4-(Dimethylamino)-7-methoxy-3-(4-methoxyphenyl)isoquinoline-1(2H)-one]",< 4.30
2,"COc1ccc(-c2nc(Cl)c3cc(OC)ccc3c2Br)cc1 [Compound 26, 4-Bromo-1-chloro-7-methoxy-3-(4-methoxyphenyl)isoquinoline]",< 4.30
3,"COc1ccc(-c2[nH]c(=O)c3cc(OC)ccc3c2N2CCCCC2)cc1 [Compound 40, 4-(Piperidin-1-yl)-7-methoxy-3-(4-methoxyphenyl)isoquinoline-1(2H)-one]",< 4.30
4,"COc1ccc(-c2nc(Sc3ccccc3)c3cc(OC)ccc3c2[N+](=O)[O-])cc1 [Compound 20, 7-Methoxy-3-(4-methoxyphenyl)-4-nitro-1-(phenylethio)isoquinoline]",4.30 to 4.60
5,"COc1ccc(-c2[nH]c(=O)c3cc(OC)ccc3c2N2CCOCC2)cc1 [Compound 49, 7-Methoxy-3-(4-methoxyphenyl)-4-morpholinoisoquinolin-1(2H)-one]",< 4.30
6,"COc1ccc(-c2nc(SCc3ccccc3)c3cc(OC)ccc3c2[N+](=O)[O-])cc1 [Compound 21, 1-(Benzylthio)-7-methoxy-3-(4-methoxyphenyl)-4-nitroisoquinoline]",4.30 to 4.60
7,"COc1ccc(-c2nc(OC)c3cc(OC)ccc3c2[N+](=O)[O-])cc1 [Compound 19, 1,7-Dimethoxy-3-(4-methoxyphenyl)-4-nitroisoquinoline]",4.30 to 4.60
8,"C#CCn1c(-c2ccc(OC)cc2)c([N+](=O)[O-])c2ccc(OC)cc2c1=O [Compound 28, 7-Methoxy-3-(4-methoxyphenyl)-4-nitro-2-(propargyl)isoquinolin-1(2H)-one]",4.30 to 4.60
9,"COc1ccc2cc(-c3ccc(Br)cc3)[nH]c(=O)c2c1 [Compound 32, 3-(4-Bromophenyl)-7-methoxyisoquinolin-1(2H)-one]",4.62 to 5.00
